{
  "source": "paper PMC6934184",
  "about": "“Selective DNA-PKcs inhibition extends the therapeutic index of localized radiotherapy and chemotherapy” (The Journal of Clinical Investigation, 2019)",
  "biological_target": "T1, AXL R499C (Homo sapiens, UniProt P30530, R499C)",
  "T1 construct": "purchased Thermo Fisher Scientific (Life Technologies) SelectScreen",
  "T1 sequence (P30530 26-894 R499C)": "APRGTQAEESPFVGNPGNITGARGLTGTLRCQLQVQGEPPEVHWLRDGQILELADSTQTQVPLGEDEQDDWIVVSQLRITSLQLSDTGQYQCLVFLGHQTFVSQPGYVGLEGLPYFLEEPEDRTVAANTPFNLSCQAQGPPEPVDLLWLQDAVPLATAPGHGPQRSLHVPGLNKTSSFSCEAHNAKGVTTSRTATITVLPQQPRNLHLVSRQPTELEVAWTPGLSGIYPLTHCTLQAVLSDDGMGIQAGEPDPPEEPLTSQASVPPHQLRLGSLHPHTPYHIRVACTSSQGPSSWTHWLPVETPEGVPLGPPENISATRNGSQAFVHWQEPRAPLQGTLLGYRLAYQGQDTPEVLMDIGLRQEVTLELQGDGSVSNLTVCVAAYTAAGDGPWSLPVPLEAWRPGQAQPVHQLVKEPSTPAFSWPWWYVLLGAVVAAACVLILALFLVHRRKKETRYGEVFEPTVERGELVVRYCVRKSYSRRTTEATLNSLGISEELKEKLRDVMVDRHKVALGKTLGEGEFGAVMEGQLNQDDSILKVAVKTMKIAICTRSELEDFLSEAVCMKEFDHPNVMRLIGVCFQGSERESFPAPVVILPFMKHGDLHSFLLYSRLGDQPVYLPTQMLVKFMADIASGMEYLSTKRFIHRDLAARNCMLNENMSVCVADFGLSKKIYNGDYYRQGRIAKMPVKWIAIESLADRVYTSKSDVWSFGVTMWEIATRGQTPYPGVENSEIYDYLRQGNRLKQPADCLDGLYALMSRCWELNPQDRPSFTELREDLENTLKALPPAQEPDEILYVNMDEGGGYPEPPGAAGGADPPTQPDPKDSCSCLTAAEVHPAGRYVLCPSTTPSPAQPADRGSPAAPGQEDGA",
  "assay": "SelectScreen LanthaScreen",
  "type": "binding",
  "conditions": "read-out: % displacement",
  "summary_of_the_method": "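Percent values come from Thermo SelectScreen profiling of NU5455, combining activity and binding assays. CSF1R was run in Z'LYTE format at Km app ATP, and CAMK1 in Adapta format with ATP listed at 10.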",
  "data": [
    {"smiles": "CN(C(=O)CN1CCOCC1)c1ccc2sc3c(-c4cccc5c(=O)cc(N6CC7CCC(C6)O7)oc45)cccc3c2c1", "note": "[NU5455]", "values": [
      {"measurement": "inhibition at 1 µM", "result": -2.7, "unit": "%"}
    ]}
  ]
}
